Experimental data as given in patent publication EP4424671A1, “NOVEL TRICYCLIC DERIVATIVE COMPOUND AND USE THEREOF” (Huchembio Co., Ltd., priority 2021, dated 2023).

Test system: STAT3 transcriptional activity
Assay: STAT3 transcriptional activity inhibitory effect, luciferase reporter assay with IL-6 stimulation
Type: cell-based, human
Conditions: for STAT3 transcriptional activity inhibitory effect % inhibition, 50-70% / inhibition at 1 µM / STAT3 transcriptional activity inhibitory effect % inhibition, 70% or more: IL-6 (10 ng/mL), 24 hours, HEK293 cells with STAT3 promoter and luciferase reporter; for inhibition at 1 µM: Homo sapiens, read-out: STAT3 transcriptional activity inhibitory effect % inhibition, 50% or less; for STAT3 activity inhibitory effect (in words): compounds at 1 µM compared with BBI-608 at 3 µM
Experimental: For HEK293 cells, an immortalized human kidney cell line, transformed HEK293 cells, in which an STAT3 promoter and a luciferase reporter were stably expressed, were used. The HEK293 cells, in which the STAT3 promoter was stably expressed, were cultured in a cell incubator at 5% CO2 and 37°C using an MEM (10% FBS) medium, and then an inhibitory effect on STAT3 transcriptional activity was confirmed by the following method.
First, HEK293 cells, in which the STAT3 promoter was stably expressed, were inoculated into a 96-well plate (white, clear bottom culture plate) at a density of 2X 10^4 cells/well, and then cultured in an incubator at 37°C and 5% CO2 for 24 hours. Then, the compound synthesized according to the above synthesis example (1 µM) or BBI-608 (Napabucasin; comparative group 3 µM) and IL-6 (10 ng/mL) were treated together, and reacted in an incubator at 37°C and 5% CO2 for 24 hours. Afterwards, the culture medium in the 96-well plate was removed, and the cells were lysed by treatment with Passive Lysis Buffer (Promega/Cat. Number E1941). Luciferase activity was tested using the Luciferase Assay System (Promega/Cat. Number E1501), and a luminescence value was measured using a microplate reader. A well not treated with IL-6 (10 ng/mL) without test substance treatment was used as a negative control, and a well treated with IL-6 (10 ng/mL) without test substance treatment was used as a positive control. A degree of STAT3 transcriptional activity inhibitory effect by the compound of the present invention was evaluated by comparing the luminescence values from each well.

SMILES | inhibition at 1 µM (compound concentration of 1 µM) [%] | STAT3 transcriptional activity inhibitory effect % inhibition, 70% or more (compound concentration of 1 µM) | STAT3 activity inhibitory effect (in words) | also measured
CC(=O)c1cc2c(o1)C(=O)c1ccccc1C2=O [BBI-608, Napabucasin, reference compound] | – | – | – | STAT3 transcriptional activity inhibitory effect % inhibition, 50-70% (comparative group at 3 uM): ○ (50-70%)
O=C1C(=O)c2cc(-c3cncc4ccccc34)ccc2-c2ccc(Br)cc21 [Compound 2, 2-bromo-7-(isoquinolin-4-yl)phenanthrene-9,10-dione] | ≤ 50 | – | – | –
O=c1c2ccccc2oc2ccc(-c3cncc4ccccc34)cc12 [Compound 3, 2-(isoquinolin-4-yl)-9H-xanthen-9-one] | ≤ 50 | – | – | –
O=c1c2ccccc2sc2ccc(-c3cncc4ccccc34)cc12 [Compound 4, 2-(isoquinolin-4-yl)-9H-thioxanthen-9-one] | – | – | – | STAT3 transcriptional activity inhibitory effect % inhibition, 50-70% (compound concentration of 1 µM): ○ (50-70%)
O=C1c2ccccc2-c2ccc(-c3cncc4nccnc34)cc21 [Compound 5, 2-(pyrido[3,4-b]pyrazin-8-yl)-9H-fluoren-9-one] | – | – | – | STAT3 transcriptional activity inhibitory effect % inhibition, 50-70% (compound concentration of 1 µM): ○ (50-70%)
O=C1c2ccccc2-c2ccc(-c3cncc4cccnc34)cc21 [Compound 7, 2-(1,6-naphthyridin-8-yl)-9H-fluoren-9-one] | – | ○ (70% or more) | excellent STAT3 activity inhibitory effect | –
O=C1c2ccccc2-c2ccc(-c3nccc4ncccc34)cc21 [Compound 8, 2-(1,6-naphthyridin-5-yl)-9H-fluoren-9-one] | – | ○ (70% or more) | excellent STAT3 activity inhibitory effect | –
O=C1c2ccccc2-c2ccc(-c3cnn4ccccc34)cc21 [Compound 9, 2-(pyrazolo[1,5-a]pyridin-3-yl)-9H-fluoren-9-one] | – | ○ (70% or more) | excellent STAT3 activity inhibitory effect | –
O=C1c2ccccc2-c2ccc(-c3cnc4ccccn34)cc21 [Compound 10, 2-(imidazo[1,2-a]pyridin-3-yl)-9H-fluoren-9-one] | ≤ 50 | – | – | –
c1ccc2c(-c3ccc4c(c3)sc3ccccc34)cncc2c1 [Compound 11, 4-(dibenzo[b,d]thiophen-3-yl)isoquinoline] | ≤ 50 | – | – | –
c1ccc2c(-c3ccc4c(c3)oc3ccccc34)cncc2c1 [Compound 12, 4-(dibenzo[b,d]furan-3-yl)isoquinoline] | ≤ 50 | – | – | –
c1ccc2c(-c3ccc4c(c3)[nH]c3ccncc34)cncc2c1 [Compound 13, 7-(isoquinolin-4-yl)-5H-pyrido[4,3-b]indole] | – | ○ (70% or more) | excellent STAT3 activity inhibitory effect | –
O=C1c2ccccc2-c2ccc(-c3cncc4ccccc34)cc21 [Compound 14, 2-(isoquinolin-4-yl)-9H-fluoren-9-one] | – | ○ (70% or more) | excellent STAT3 activity inhibitory effect | –
c1ccc2c(-c3ccc4c(c3)[nH]c3ccccc34)cncc2c1 [Compound 15, 2-(isoquinolin-4-yl)-9H-carbazole] | – | – | – | STAT3 transcriptional activity inhibitory effect % inhibition, 50-70% (compound concentration of 1 µM): ○ (50-70%)
c1ccc2c(-c3ccc4c5c([nH]c4c3)CCCC5)cncc2c1 [Compound 16, 7-(isoquinolin-4-yl)-2,3,4,9-tetrahydro-1H-carbazole] | – | – | – | STAT3 transcriptional activity inhibitory effect % inhibition, 50-70% (compound concentration of 1 µM): ○ (50-70%)
O=C1c2ccccc2-c2ccc(-c3cccc4ccncc34)cc21 [Compound 17, 2-(isoquinolin-8-yl)-9H-fluoren-9-one] | ≤ 50 | – | – | –
O=C1c2ccccc2-c2ccc(-c3cccc4cnccc34)cc21 [Compound 18, 2-(isoquinolin-5-yl)-9H-fluoren-9-one] | – | – | – | STAT3 transcriptional activity inhibitory effect % inhibition, 50-70% (compound concentration of 1 µM): ○ (50-70%)
O=C1c2ccccc2-c2ccc(-c3cccc4nccn34)cc21 [Compound 19, 2-(imidazo[1,2-a]pyridin-5-yl)-9H-fluoren-9-one] | ≤ 50 | – | – | –
O=C1c2ccccc2-c2ccc(-c3cccn4cnnc34)cc21 [Compound 20, 2-([1,2,4]triazolo[4,3-a]pyridin-8-yl)-9H-fluoren-9-one] | ≤ 50 | – | – | –
c1ccc2c(-c3ccc4c5c([nH]c4c3)CCC5)cncc2c1 [Compound 21, 6-(isoquinolin-4-yl)-1,2,3,4-tetrahydrocyclopenta[b]indole] | – | ○ (70% or more) | excellent STAT3 activity inhibitory effect | –
O=C1c2ccccc2-c2ccc(-c3nccc4ccccc34)cc21 [Compound 22, 2-(isoquinolin-1-yl)-9H-fluoren-9-one] | ≤ 50 | – | – | –
O=C1c2ccccc2-c2ccc(-c3cccn4ccnc34)cc21 [Compound 23, 2-(imidazo[1,2-a]pyridin-8-yl)-9H-fluoren-9-one] | – | ○ (70% or more) | excellent STAT3 activity inhibitory effect | –
